In publication PMC9519869, “Synthesis, biological evaluation, and molecular modeling studies of new benzoxazole derivatives as PARP-2 inhibitors targeting breast cancer” (Scientific Reports, 2022):
Entries after “also recorded” stand apart in the source; their conditions may differ.

Key:
MCF-7 cells [1] = assay: Annexin V-FITC/PI double staining flow cytometry, apoptosis and necrosis; format: cell-based, human; conditions: MCF-7 treated at IC50 concentration, 24 h; for % Late apoptosis: untreated control 0.33%; for % Early apoptosis: untreated control 0.37%; for % Necrosis: untreated control 1.15%; for % Total apoptosis: untreated control 1.85%
Excerpt: Apoptosis, which is a programmed cell death, is considered as an important way to express cell death among anticancer agents. Most of the anticancer agents can induce apoptosis in cancerous cells. To examine whether the potent cytotoxic effect of 11, 12, 13 and 27 was attributed to apoptosis or necrosis, annexin V-FITC propidium iodide (PI) double staining flow cytometry assay was applied. […] The cells were then stained with annexin V-FITC propidium iodide (PI) and the percentage of apoptotic cells was determined by flow cytometry. […] Compounds 11, 12, 13 and 27 induced necrotic effect 5.74%, 7.23%, 6.39% and 2.07%, respectively in comparison to the untreated negative control MCF-7 cells (1.15%).
Cell death by apoptosis was detected by flow cytometric method using Annexin-V/FITC propidium iodide Apoptosis Detection Kit Catalog #: K101-25; Biovision, USA). MCF-7 cells were seeded at a density of 2 × 10 ^5 cells/well in 24-well plate, treated with the test compounds 11, 12, 13 and 27 at different concentrations and incubated at 37 °C for 24 h in 5% CO2 atmosphere. Cells were collected and suspended in 500 µl binding buffer and then 5 µl of Annexin V-FITC and 5 µl of PI were added and mixed. The mixture was incubated for 5 min in the dark at room temperature. Cell apoptosis analyses were performed using FACSCalibur (Becton Dickinson FACS, San Jose, CA) flow cytometer.

MDA-MB-231 = assay: In vitro cytotoxicity screening, MTT assay; conditions: Homo sapiens, MDA-MB-231, 24 h, read-out: In vitro Cytotoxicity (IC50, µM) MDA-MB-231
Excerpt: Two human breast cancer cell lines, namely, MDA-MB-231 and MCF-7 were obtained from American Type Culture Collection (ATCC) via a holding company for biological products and vaccines (VACSERA), Cairo, Egypt. […] The reagents used were RPMI-1640 medium, MTT, DMSO (sigma co., St. Louis, USA), and Fetal bovine serum (GIBCO, UK). […] MTT is a colorimetric assay based on the conversion of the yellow tetrazolium bromide (MTT) to a purple formazan derivative by mitochondrial succinate dehydrogenase in viable cells. Cell lines were cultured in RPMI-1640 medium with 10% foetal bovine serum. Antibiotics added were 100 units/ml penicillin and 100 µg/ml streptomycin maintained at 37 °C in a 5% CO2 incubator. The cell lines were seeded at a density of approximately 1.0 × 10 ^4 cells/well in a 96-well plate at 37 °C for 48 h under 5% CO2. Different concentrations of compounds were added and incubated for 24 h. After 24 h of drug treatment, 20 µl of MTT staining solution at 5 mg/ml was added to each well and incubated for 4 h at 37 °C. After 4 h, 100 µl of dimethyl sulfoxide (DMSO) were added into each well to dissolve the purple formazan crystals formed. The absorbance was recorded at 570 nm using a plate reader (EXL 800, USA). The relative cell viability in percentage was calculated as (A570 of treated samples/A570 of untreated sample) X 100 [22],[23].

MCF-7 cells [2] = assay: Cell cycle analysis by flow cytometry (PI staining); format: cell-based, human; conditions: MCF-7 treated at IC50 concentration; for percentage of cells in pre-G1 phase (%Pre-G1) / percentage of cells in G2/M phase (%G2/M) / percentage of cells in S phase (%S) / percentage of cells in G0/G1 phase (%G0-G1): 24 h; for percentage of cells in pre-G1 phase (%Pre-G1): untreated control 1.85%; for percentage of cells in G2/M phase (%G2/M): untreated control 11.84%; for percentage of cells in S phase (%S): untreated control 29.95%; for percentage of cells in G0/G1 phase (%G0-G1): untreated control 58.21%
Protocol: For further investigation of the promising antiproliferative activity of compounds 11, 12, 13 and 27 on breast cancer MCF-7 cell line, cell cycle analysis was carried out using flow cytometric assay. […] The flow cytometric assay results were compared to the negative control untreated MCF-7 cell line.
MCF-7 cells were seeded in 24-well plate at a density of 2 × 10^5 cells/well, treated with the test compounds 11, 12, 13 and 27 at different concentrations and incubated at 37 °C for 24 h in 5% CO2 atmosphere. The cells were washed with ice-cold phosphate buffer saline (PBS) twice and fixed in 70% ice-cold ethanol overnight and then suspended in (PBS) containing PI (DNA staining solution) at concentration of 50 µg/mL, 0.1 mg/mL RNAase A (Sigma, USA) and 0.05% Triton X-100. Cells were analysed by flow cytometry after 30 min at 37 n the dark using FACSCalibur (Becton Dickinson FACS, San Jose, CA) flow cytometer. The cell cycle distributions were measured using Cell-Quest software.
Suppl. S3. Cell cycle analysis for compounds 11, 12, 13 and 27 […]
Assay : Cell Cycle Analysis
Kit used : ab139418_Propidium Iodide Flow Cytometry Kit/BD
Assay samples : Cell culture
Table S3. Cell cycle phase distribution in MCF-7 cell line treated with vehicle control and the newly synthesised compounds; 11, 12, 13 and 27. […]

PARP-2 enzyme = molecular target: T1, PARP-2 enzyme (Homo sapiens, UniProt Q9UGN5); assay: Poly (ADP-ribose) polymerase 2 (PARP-2) inhibition assay (colorimetric kit); format: biochemical; conditions: for IC50: in vitro enzyme assay
T1 construct: purchased BPS Bioscience 80,581
T1 sequence (Q9UGN5 whole entry): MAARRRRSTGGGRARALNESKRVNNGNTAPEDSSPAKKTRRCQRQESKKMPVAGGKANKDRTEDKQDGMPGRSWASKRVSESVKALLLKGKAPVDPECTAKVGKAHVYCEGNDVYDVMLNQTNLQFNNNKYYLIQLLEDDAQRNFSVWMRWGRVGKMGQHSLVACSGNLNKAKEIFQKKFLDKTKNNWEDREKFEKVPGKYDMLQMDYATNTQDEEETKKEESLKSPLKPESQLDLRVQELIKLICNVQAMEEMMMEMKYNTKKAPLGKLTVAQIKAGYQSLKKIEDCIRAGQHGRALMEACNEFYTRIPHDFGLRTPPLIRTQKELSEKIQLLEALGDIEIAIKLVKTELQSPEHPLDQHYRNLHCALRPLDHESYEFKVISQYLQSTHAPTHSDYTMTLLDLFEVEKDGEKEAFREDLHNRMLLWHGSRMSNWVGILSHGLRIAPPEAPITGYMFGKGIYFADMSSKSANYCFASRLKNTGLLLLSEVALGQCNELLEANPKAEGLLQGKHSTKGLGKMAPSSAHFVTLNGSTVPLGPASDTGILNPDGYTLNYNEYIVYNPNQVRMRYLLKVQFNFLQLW
Protocol: Results were expressed as IC50 values (Table 2).
The PARP-2 inhibitory activity of the test compounds was assayed using PARP-2 Colorimetric Activity Assay Kit (BPS Bioscience, catalog 80,581, San Diego, CA, USA) following the manufacturer’s protocol. Briefly, histone protein mixture was coated on a 96-well microtiter plate and incubated at 4 °C overnight, washed with phosphate-buffered saline with tween-20 (PBST) three times then, the wells were blocked by adding blocking buffer 3 and incubated at room temperature for 60–90 min. After that, the plate was washed with PBST buffer three times. The master mixture which contains the PARP buffer, PARP assay mixture, activated DNA and distilled water was added to each well then, the inhibitor solution (test compound) was added. The reaction was initiated by adding PARP-2 enzyme to the wells and the plate was incubated for 1 h at room temperature. After 1 h, the reaction mixture was discarded, and the plate was washed with PBST buffer three times. Finally, the plate was treated with Streptavidin–Horseradish Peroxidase (HRP) and incubated for 30 min at room temperature and then washed with PBST buffer. The colorimetric HRP substrate was added to each well and incubated at room temperature until the positive control well developed blue color. Sulphuric acid was added to each well after the blue color development. The absorbance was read at 450 nm using UV/Vis spectrophotometer microplate reader.
Suppl. S2. In vitro PARP-2 enzyme inhibition assay
Researcher : Dr. Nadeen Ghobashy email:elghobashynadeen@gmail.com mob.01008873340
Reader : ROBONIK P2000 Eliza Reader wl 450 nm

Row | Compound | % Late apoptosis (MCF-7 cells [1]) | % Early apoptosis (MCF-7 cells [1]) | % Necrosis (MCF-7 cells [1]) | % Total apoptosis (MCF-7 cells [1]) | IC50 (MDA-MB-231) | percentage of cells in pre-G1 phase (%Pre-G1) (MCF-7 cells [2]) | percentage of cells in G2/M phase (%G2/M) (MCF-7 cells [2]) | percentage of cells in S phase (%S) (MCF-7 cells [2]) | percentage of cells in G0/G1 phase (%G0-G1) (MCF-7 cells [2]) | %inh of PARP-2 (Table S2 raw data) (PARP-2 enzyme; conc 0.01 (ng/ml)) | %inh of PARP-2 (Table S2 raw data) (PARP-2 enzyme; conc 0.1 (ng/ml)) | %inh of PARP-2 (Table S2 raw data) (PARP-2 enzyme; conc 1 (ng/ml)) | %inh of PARP-2 (Table S2 raw data) (PARP-2 enzyme; conc 10 (ng/ml)) | IC50 (PARP-2 enzyme) | cell cycle arrest phase (MCF-7 cells [2])
1 | CCN(CC)CCC(=O)Nc1ccc(-c2nc3cc(Cl)ccc3o2)cc1 [Compound 27, N-(4-(5-chlorobenzoxazol-2-yl)phenyl)-3-(diethylamino)propanamide] | 4.58% | 19.26% | 2.07% | 25.91% | 11.3 ± 0.9 µM | 25.91% | 4.46% | 33.16% | 62.38% | 37.25% | 52.67% | 73.48% | 88.84% | 57 ± 3 nM | –
2 | CN1CCN(CCC(=O)Nc2ccc(-c3nc4cc(Cl)ccc4o3)cc2)CC1 [Compound 13, N-(4-(5-chlorobenzoxazol-2-yl)phenyl)-3-(4-methylpiperazin-1-yl)propanamide] | 10.99% | 12.28% | 6.39% | 29.66% | 7.52 ± 0.6 µM | 29.66% | 26.51% | 28.51% | 44.98% | 30.58% | 46.82% | 71.31% | 88.69% | 106 ± 6 nM | cell growth arrest@ G2/M; also recorded: cell cycle arrest at G2/M phase
3 | O=C(CCN1CCCCC1)Nc1ccc(-c2nc3cc(Cl)ccc3o2)cc1 [Compound 11, N-(4-(5-chlorobenzoxazol-2-yl)phenyl)-3-(piperidin-1-yl)propanamide] | 23.02% | 16.31% | 5.74% | 45.07% | 5.63 ± 0.3 µM | 45.07% | 7.22% | 24.76% | 68.02% | 28.75% | 43.61% | 58.88% | 84.97% | 190 ± 10 nM | cell growth arrest@ G1; also recorded: cell cycle arrest at G0/G1 phase
4 | O=C(CCN1CCOCC1)Nc1ccc(-c2nc3cc(Cl)ccc3o2)cc1 [Compound 12, N-(4-(5-chlorobenzoxazol-2-yl)phenyl)-3-morpholinopropanamide] | 3.72% | 22.52% | 7.23% | 33.47% | 6.14 ± 0.5 µM | 33.47% | 32.04% | 26.18% | 41.78% | 35.69% | 53.11% | 67.93% | 90.18% | 70 ± 4 nM | –
